From patent US11052154B2, “Ras protein degradation inducing molecule and pharmaceutical composition” (Tokyo University of Science Foundation, priority 2016, dated 2021) come the findings set out here.

For experiment [1], the target named is T1, endogenous wild-type H-Ras protein (Homo sapiens, UniProt P01112).
T1 construct: an endogenous wild-type K-Ras protein and wild-type H-Ras protein; endogenous in cells; host or cells: HeLa
The experiment can be described thus: Degradation of endogenous wild-type H-Ras protein in HeLa cells, Western blot analysis. The experiment is classed as cell-based. Particulars: 48 hours after addition, vs control (DMSO), FIG. 5. The procedure: (§1) In Example 6, degradation (knockdown) of an endogenous wild-type K-Ras protein and wild-type H-Ras protein in HeLa cells to which TUS-007 had been added was evaluated by Western blot analysis.
(§2) HeLa cells were seeded in a 24-well plate at a cell density of 8×10^4 cells/well, and then cultured under conditions of 37° C. and 5 vol % CO2 for 16 hours.
(§3) After 16 hours from cell seeding, TUS-007 was added to HeLa cells as follows. As a medium, a serum-free medium (37° C.) in which 1 mass % L-glutamine solution (Sigma-Aldrich) was added to D-MEM (high D-glucose, phenol red, sodium pyruvate (Wako Pure Chemical Industries, Ltd.)) was used. It is noted that the L-glutamine solution was added immediately before use. A DMSO solution containing TUS-007 was mixed with the medium so that the concentration of DMSO was 1 vol %, and added to each well at 500 μL/well, and cultured under conditions of 37° C. and 5 vol % CO2. As a control, DMSO was used. […]
(§4) After electrophoresis, proteins were transferred to a PVDF membrane (Immobion™-P, Millipore) under conditions of 100 V and 2 hours using a tank-type blotting device and a transfer buffer (25 mM Tris-HCl, 195 mM glycine, 0.01% SDS, 15% methanol). […] Subsequently, the membrane was treated with a chemiluminescence reagent Immobilon™ Western (Millipore), and then chemiluminescence was detected using a lumino image analyzer LAS-3000 (FUJIFILM Corporation). […]
Background: A western blot detects proteins with antibodies after separation by electrophoresis.

In experiment [2] the target is T2, endogenous wild-type K-Ras protein (Homo sapiens, UniProt P01116).
T2 construct: an endogenous wild-type K-Ras protein; endogenous in cells; host or cells: HeLa
The experiment can be described thus: Degradation of endogenous wild-type K-Ras protein in HeLa cells, Western blot analysis. Particulars: 48 hours after addition, vs control (DMSO), FIG. 5. It counts as cell-based. The procedure: as §1, §2, §3, §4

T1 sequence (P01112 whole entry): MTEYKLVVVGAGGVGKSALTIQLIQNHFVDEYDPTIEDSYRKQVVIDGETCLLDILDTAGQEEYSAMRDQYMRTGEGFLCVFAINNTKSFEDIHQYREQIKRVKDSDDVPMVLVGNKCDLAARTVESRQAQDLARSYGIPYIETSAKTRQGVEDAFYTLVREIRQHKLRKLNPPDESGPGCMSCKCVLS
T2 sequence (P01116 1-188 isoform P01116-2): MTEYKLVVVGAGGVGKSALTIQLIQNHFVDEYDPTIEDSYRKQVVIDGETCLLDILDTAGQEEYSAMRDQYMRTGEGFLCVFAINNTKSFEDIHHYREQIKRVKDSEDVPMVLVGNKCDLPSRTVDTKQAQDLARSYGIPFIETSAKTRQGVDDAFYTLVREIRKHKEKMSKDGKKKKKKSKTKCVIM

With `CCC(C)[C@H](NC(=O)CCCCCCNC(=O)[C@H](CC(C)C)NC(=O)CNC(=O)c1cc(Cl)ccc1Cl)C(=O)Nc1ccc2[nH]c(Cc3c[nH]c4ccccc34)nc2c1` (stereo in doubt) [TUS-007], in experiment [1], the “amount of the endogenous wild-type H-Ras protein (Western blot)” value is “the amount of the endogenous wild-type K-Ras protein and wild-type H-Ras protein was reduced”. Moreover, in experiment [2], the “amount of the endogenous wild-type K-Ras protein (Western blot)” value is “the amount of the endogenous wild-type K-Ras protein and wild-type H-Ras protein was reduced”.
